Test results: paper PMC11079024, “Identification of a family of species-selective complex I inhibitors as potential anthelmintics” (Nature Communications, 2024)
“And” between values parts separate entries of the source, which are not always exact repeats. Identical values can stand only once. Like-named read-outs stand apart in the source and are kept apart here.

Legend:
H. polygyrus = experiment: In vivo efficacy study in H. polygyrus mouse model; parameters: species or system NMRI mice infected with H. polygyrus; conditions: for # Mice cured/ # Mice investigated: assessed 1 week after dosing; for Median # of living H. polygyrus worms: median (MAD) of adults collected from intestine; for Live worms in intestine (individual mouse) / Live worms in intestine, Median (+/- MAD): worm burden one week after dose; for Live worms in intestine (individual mouse): Mouse 1-4, 200 mg/kg; for Live worms in intestine, Median (+/- MAD): three to four mice
Experimental: For in vivo testing, female 3-week old NMRI mice were purchased from Charles River, Germany. The mice were kept in individually ventilated cages (IVC) under environmentally controlled conditions (temperature: 22 °C ± 2 °C; relative humidity: 55% ± 15%; artificial lighting with a circadian cycle of 12 h of light) and had free access to water (municipal tap water supply) and rodent food. Rodents were allowed to acclimatize to the new environment for 1 week before infection. Upon 2 days of arrival, dexamethasone (0.25 mg/L) (Sigma-Aldrich, Switzerland) was added to the normal drinking water for immunosuppression to enable parasite establishment. After 1 week, mice were orally infected with 100 H. polygyrus third larval stage (L3) in 150 µL water.
Four benzimidazole derivatives were tested for in vivo efficacy. The administration of dexamethasone was stopped after 12 days post-infection and 2 days later, the selected four benzimidazole derivatives were administered by oral gavage at a single dose of 200 mg/kg to groups of each four mice. Four mice were left untreated and served as a control group. The derivatives were prepared as a Tween80 (Sigma-Aldrich, Switzerland)/ethanol (Merck, Germany) mixture dissolved in tap water (7:3:90, v/v). After 6–7 days post-dosing, the mice were euthanized with CO2 and dissected. Adult worms were removed from the intestine and counted. The worm burden reduction was calculated by comparing the number of worms found in the control animals versus the treated animals.

[1] = system: P. hermaphrodita complex I; experiment: In vitro complex I activity assay, P. hermaphrodita mitochondria; type: biochemical, Phasmarhabditis hermaphrodita; conditions: purified mitochondria
Experimental: (§1) Mitochondria were isolated from the following free-living nematode strains: C. elegans—N2, CB3474, ECA882, ECA917, ECA1075, ECA1080; C. briggsae—AF16; P. pacificus—PS312; and P. hermaphrodita—B178. With the exception of the P. hermaphrodita strain B178, adult worms of each strain were grown in bulk through liquid culture to obtain mitochondria in sufficient quantities. Due to poor growth in liquid media, mixed stage populations of P. hermaphrodita were washed off and collected from NGM plates seeded with OP50. The isolation of mitochondria from all free-living nematode strains followed the protocol previously outlined in Burns et al.[24]. In brief, a 1 L saturated culture of E. coli HB101 was concentrated 20-fold in 50 mL complete S-medium. ~500,000 L1 worms synchronized from an embryo preparation performed the day prior were added to the S-media/HB101 suspension and grown to adulthood over the course of 3.5 days at 20 °C with shaking at 165 rpm. Following growth, worms were collected in 10 ×15 mL conical tubes and washed 7 times in M9 buffer. Worm suspensions were then combined into a single 15 mL conical tube and diluted to a final volume of 15 mL with M9 buffer. 1 mL aliquots of worm suspension were then distributed to 15 × 1.5 mL screw-cap microcentrifuge tubes and were pelleted at 500 g for 1 min. Excess M9 was aspirated without disturbing the worm pellet. 600 μL ice-cold isolate buffer A (250 mM sucrose, 10 mM Tris (pH 7.5), 1 mM EDTA, 1 mM PMSF (freshly prepared)) and 300 μL cold glass beads were then added to each tube. Tubes were incubated on ice for 10 min, and the worms were then lysed by bead beating (6 x 30 s, with 1 min cooling intervals). Tubes containing worm lysate were centrifuged at 1,000 g for 10 min at 4 °C and the supernatant was transferred to 15 new microcentrifuge tubes on ice. The tubes were centrifuged a second time at 1,000 g for 10 min at 4 °C and the supernatant was once again transferred to 15 new microcentrifuge tubes on ice. These tubes were then centrifuged at 16,000 g for 10 min at 4 °C. The resulting mitochondrial pellet was washed twice by re-suspension in 300 μL of ice-cold isolate buffer B (250 mM sucrose, 10 mM Tris (pH 7.5), 1 mM EDTA). Following the final wash, isolation buffer was aspirated from each tube and the pellets were flash-frozen in ethanol/dry ice and stored at −80 °C until needed.
(§2) The enzymatic activities of individual ETC complexes (I-IV) were assessed spectrophotometrically in isolated mitochondria using a Varioskan LUX Multimode plate reader (ThermoFisher Scientific). Mitochondrial pellets previously isolated were thawed on ice and resuspended in ice-cold isolation buffer (250 mM sucrose, 10 mM Tris (pH 7.5), 1 mM EDTA). The BCA assay (Walker, 1994) was used to quantify the protein concentration of mitochondria suspensions; solutions were diluted to a concentration of 0.2 mg/mL for use in all assays. For the complex I assay, mitochondria pellets were freeze-thawed on ice three times to increase enzyme accessibility. […] 20 μL mitochondria suspension was then added/mixed with a pipette to initiate the reaction. Immediately following the addition of mitochondria, absorbance was measured (complex I and II: 600 nm; complex III and IV: 550 nm) in 30 s intervals over 15 min. Enzymatic activity was determined in each reaction by plotting absorbance versus time and calculating the slope of the curve during the initial linear phase of the reaction. […] Percent activity of each complex was calculated by dividing the enzyme-specific activity of each well by the enzyme-specific activity of the corresponding solvent controls.
(§3) Chemical solutions were prepared in complex I assay buffer composed of 25 mM KPi buffer (pH 7.5), 3 mg/mL bovine serum albumin (BSA), 80 μM NADH, 60 μM decylubiquinone, 160 μM DCIP, 2 μM antimycin A and 2 mM KCN. […]

P. pacificus complex I = P. pacificus complex I (Pristionchus pacificus, UniProt A0A454XZ18+A0A8R1Z3U8+A4UAP3); experiment: In vitro complex I activity assay, P. pacificus mitochondria; type: biochemical; conditions: for IC50: purified mitochondria
Experimental: as §1, §2, §3

[2] = single oral dose 200 mg/kg, vs untreated control mice
[3] = single oral dose of 200 mg/kg, median worm counts versus control mice
[4] = P. pacificus mitochondria, Mean of replicates, read-out: in vitro complex I activity relative to solvent control
[5] = P. pacificus mitochondria, Mean, read-out: in vitro complex I activity relative to solvent control
[6] = P. pacificus mitochondria, single replicate, read-out: in vitro complex I activity relative to solvent control

Structure (SMILES) | # Mice cured/ # Mice investigated (H. polygyrus; single oral dose 200 mg/kg) | % Worm burden reduction (H. polygyrus; [2]) [%] | Median # of living H. polygyrus worms (H. polygyrus; single oral dose 200 mg/kg) | % Worm burden reduction (H. polygyrus; [3]) [%] | Live worms in intestine (individual mouse) (H. polygyrus; single oral dose of 200 mg/kg) | Live worms in intestine, Median (+/- MAD) (H. polygyrus; single oral dose of 200 mg/kg) | IC50 [1] [nM] | remaining activity at 0.0001 µM (P. pacificus complex I; [5]) [%] | remaining activity at 0.0001 µM (P. pacificus complex I; [6]) [%] | remaining activity at 0.0005 µM (P. pacificus complex I; [5]) [%] | remaining activity at 0.001 µM (P. pacificus complex I; [5]) [%] | remaining activity at 0.0025 µM (P. pacificus complex I; [5]) [%] | remaining activity at 0.005 µM (P. pacificus complex I; [5]) [%] | remaining activity at 0.013 µM (P. pacificus complex I; [5]) [%] | remaining activity at 0.025 µM (P. pacificus complex I; [5]) [%] | remaining activity at 0.063 µM (P. pacificus complex I; [5]) [%] | remaining activity at 0.125 µM (P. pacificus complex I; [5]) [%] | remaining activity at 0.313 µM (P. pacificus complex I; [5]) [%] | remaining activity at 0.625 µM (P. pacificus complex I; [5]) [%] | remaining activity at 1.5 µM (P. pacificus complex I; [5]) [%] | further results
CC(C)Cc1ccc(C(C)c2nc3ccccc3n2C)cc1 (centres unmarked) [NPD8790] | 0/4 | 23.0 | 95.5 (4.0) | 22.9839 | 93 and 52 and 101 and 98 | 95.5 (4.0) | 1100 | 85.3 | 79.8 | 88.9 | 112 | 110 | 117 | 105 | 107 | 105 | 88 | 82 | 75.5 | 68.1 | remaining activity at 0.06 µM (P. pacificus complex I; P. pacificus mitochondria, 0.06 µM, Mean of replicates, read-out: in vitro complex I activity relative to solvent control): 105%; remaining activity at 0.13 µM (P. pacificus complex I; P. pacificus mitochondria, 0.13 µM, Mean of replicates, read-out: in vitro complex I activity relative to solvent control): 88%; remaining activity at 0.313 µM (P. pacificus complex I; [4]): 82%; remaining activity at 0.625 µM (P. pacificus complex I; [4]): 75.5%; remaining activity at 1.5 µM (P. pacificus complex I; [4]): 68.1%; remaining activity at 3 µM (P. pacificus complex I; [4]): 49.1%; remaining activity at 15 µM (P. pacificus complex I; [4]): 21.4%; remaining activity at 37.5 µM (P. pacificus complex I; [4]): 16.3%; remaining activity at 75 µM (P. pacificus complex I; [4]): 11.3%; remaining activity at 0.0005 µM (P. pacificus complex I; [6]): 82.3%; remaining activity at 0.313 µM (P. pacificus complex I; [6]): 71.1%; remaining activity at 3 µM (P. pacificus complex I; [5]): 49.1%; remaining activity at 15 µM (P. pacificus complex I; [5]): 21.4%; remaining activity at 37.5 µM (P. pacificus complex I; [5]): 16.3%; remaining activity at 75 µM (P. pacificus complex I; [5]): 11.3%; IC50 (P. pacificus complex I): 2100 nM
Cc1ccccc1OCCCCn1cnc2ccccc21 [Compound 7732524] | 0/4 | 24.6 | 93.5 (5.0) | 24.5968 | 95 and 92 and 111 and 85 | 93.5 (5.0) | 68.7 | 87.6 | 93.9 | 88.6 | 75.8 | 97.4 | 100 | 85.8 | 73.7 | 46.6 | 24.7 | 8.23 | 11.5 | 9.66 | remaining activity at 3 µM (P. pacificus complex I; [5]): 9.9%; remaining activity at 15 µM (P. pacificus complex I; [5]): 16.2%; remaining activity at 15 µM (P. pacificus complex I; [6]): 15.9%; remaining activity at 37.5 µM (P. pacificus complex I; [5]): 16.1%; remaining activity at 75 µM (P. pacificus complex I; [5]): 7.58%; IC50 (P. pacificus complex I): 56.2 nM
